Test results taken from publication PMC4961623 (Journal of neurochemistry, 2016).

Molecular target: T1, sterol carrier protein-2 (SCP-2) (Homo sapiens, UniProt P22307)
T1 sequence (P22307 425-547): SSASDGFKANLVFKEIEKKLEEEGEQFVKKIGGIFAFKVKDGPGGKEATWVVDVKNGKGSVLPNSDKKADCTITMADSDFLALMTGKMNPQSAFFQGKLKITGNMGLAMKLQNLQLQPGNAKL
Assay: fluorescent cis-parinaric acid displacement assay
Assay type: binding

CCCCC/C=C\C/C=C\C/C=C\C/C=C\CCCC(=O)OC(CO)CO [2-AG, 2-arachidonoylglycerol]
Ki: 200 ± 10 nM

CCCCC/C=C\C/C=C\C/C=C\C/C=C\CCCC(=O)NCCO [AEA, arachidonoylethanolamide]
Ki: 290 ± 10 nM
